Measured values published in patent publication US8680049B2 (Zealand Pharma A/S, priority 2008, dated 2014).

Tests used:
[1] = target: T1, human Glucagon-R (Homo sapiens, UniProt P47871); assay: Glucagon receptor efficacy assay (cAMP, HEK293 cells); format: cell-based; details: read-out: GLUR EC50; note: crude peptides with purity of less than 90%
T1 construct: expressed in transfected cells
Description: (§1) The 5′-end primers additionally encoded a near Kozak consensus sequence to ensure efficient translation.
(§2) 48 hr after transfection cells were seeded for limited dilution cloning and selected with 1 mg/ml G418 in the culture medium.
(§3) On the day of analysis, growth medium was removed and the cells washed once with 200 μl Tyrode buffer. Cells were incubated in 100 μl Tyrode buffer containing increasing concentrations of test peptides, 100 μM IBMX, and 6 mM glucose for up 15 min at 37° C. The reaction was stopped by addition of 25 μl 0.5 M HCl and incubated on ice for 60 min. The cAMP content was estimated using the FlashPlate® cAMP kit from Perkin-Elmer.

[2] = target: T2, human GLP-1-R (Homo sapiens, UniProt P43220); assay: GLP-1 receptor efficacy assay (cAMP, HEK293 cells); format: cell-based; for EC50: crude peptides with purity of less than 90%
T2 construct: expressed in transfected cells
T2 sequence (P43220 24-463): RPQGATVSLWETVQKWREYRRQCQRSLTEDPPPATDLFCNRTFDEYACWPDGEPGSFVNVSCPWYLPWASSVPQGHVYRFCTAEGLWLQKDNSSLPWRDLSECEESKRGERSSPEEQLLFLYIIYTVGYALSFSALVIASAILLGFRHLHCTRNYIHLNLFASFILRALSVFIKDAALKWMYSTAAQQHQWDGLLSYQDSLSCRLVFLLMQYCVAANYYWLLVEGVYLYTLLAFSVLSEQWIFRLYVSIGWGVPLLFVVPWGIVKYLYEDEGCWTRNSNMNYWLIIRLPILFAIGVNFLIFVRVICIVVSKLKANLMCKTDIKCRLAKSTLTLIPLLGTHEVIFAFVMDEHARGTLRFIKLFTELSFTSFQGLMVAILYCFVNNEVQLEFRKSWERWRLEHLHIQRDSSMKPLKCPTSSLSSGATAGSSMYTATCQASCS
Description: as §1, §2, §3

[3] = tested on: C57Bl/6 mice; assay: Food intake in normal mice; format: in vivo; details: fasted mice, s.c.; PYY3-36 30 nmol/kg, glucagon 500 nmol/kg, ZP2663 500 nmol/kg
Description: One week before study C57Bl/6 mice (8 weeks) (N=9-12 animals in each group) were conditioned to treatment by daily injections (s.c.) of 0.2 ml vehicle and acclimatized to handling by weighing them twice a week. Mice were stratified one day before start of experiment into groups with similar body weight (BW). […] After one hour pre-weighed food was introduced to the mice and food intake measured by weighing the remaining food after one hour and expressed relative to body weight (mg food/g BW). Statistical analyses of food intake data by one-way ANOVA and Dunnetts post-hoc analyses were performed with GraphPad Prism version 4. Differences were considered significant at the 0.05 level.

[4] = tested on: db/db mice; assay: Oral glucose tolerance test (OGTT) in db/db mice; format: in vivo; details: i.p., 45 nmol/kg
Description: The animals were kept fasted during the experiment to prevent confounding food intake. Fifteen minutes later an oral dose of glucose (1 g/kg in 5 ml/kg) was given and BG levels were measured at t=30 min, t=60 min, t=120 min and t=240 min.
Difference from baseline (t=0) was calculated for each time point and AUC0-240 min values were determined. Statistical analyses of AUC values by one-way ANOVA and Dunnetts post-hoc analyses were performed with GraphPad Prism version 4. Differences were considered significant at the p<0.05 level.

[5] = tested on: diet induced obese (DIO) mice; assay: 28 day treatment of diet induced obese (DIO) mice: body weight and plasma cholesterols; format: in vivo
Description: Four weeks before drug treatments, C57Bl/6 male mice (7 weeks) (N=9-12 animals in each group) were put on high fat diet (HFD) and their day-night cycle reversed with lights On/Off at 2000/0800 hour. Experimental animals were conditioned to treatment by daily injections (s.c.) of 0.1 ml vehicle and acclimatized to handling by weighing them twice a week one week before start of drug administrations. […] Animals were fasted overnight before sacrifice. An eye blood sample (0.6 ml EDTA) was obtained the following morning immediately before cervical dislocation. Blood plasma samples were stored at −80° C. until analyzed for cholesterol, HDL and LDL using commercially available kits. Body weight gain throughout the treatment period was calculated for each animal by subtracting its weight at the initiation of treatment.
The effects of treatment on body weight gain and cholesterols were assessed by 2-way ANOVA with repeated measures and Bonferoni post-hoc analyses, using GraphPad Prism version 4. Differences were considered significant at the 0.05 level.

[6] = tested on: primary rat adipocytes; format: cell-based
Description: Adipocytes were isolated from epididymal fat dissected from normal young adult Sprague-Dawley rats. The fat lumps were minced, incubated and shaken (220 rpm) with collagenase (1 mg/ml) in Krebs-Ringer buffer containing 4% BSA (KRB-BSA) for 60 minutes at 37° C. The suspension was filtered through a nylon filter (160 μm pore size) and the filtrate centrifuged at 200×g for 3 min. The subjacent medium beneath the upper floating layer of adipocytes was removed with a Pasteur-pipette. The adipocytes were washed 3 times in KRB-BSA buffer by re-suspension and centrifugation. The adipocytes were re-suspended in KRB-BSA, mixed, incubated in and shaken with test compounds in 96-deep well plates (50,000 cells/well) in a total volume of 1 ml at 37° C. for 60 min. The plates were placed on ice for at least 10 min after incubation followed by centrifugation at 200×g for 3 min. 300 μl of the buffer beneath the adipocyte layer were collected in a 96-deep well plate. This process was repeated two more times and the 3 extracts collected from each culture pooled together.

T1 sequence (P47871 26-477): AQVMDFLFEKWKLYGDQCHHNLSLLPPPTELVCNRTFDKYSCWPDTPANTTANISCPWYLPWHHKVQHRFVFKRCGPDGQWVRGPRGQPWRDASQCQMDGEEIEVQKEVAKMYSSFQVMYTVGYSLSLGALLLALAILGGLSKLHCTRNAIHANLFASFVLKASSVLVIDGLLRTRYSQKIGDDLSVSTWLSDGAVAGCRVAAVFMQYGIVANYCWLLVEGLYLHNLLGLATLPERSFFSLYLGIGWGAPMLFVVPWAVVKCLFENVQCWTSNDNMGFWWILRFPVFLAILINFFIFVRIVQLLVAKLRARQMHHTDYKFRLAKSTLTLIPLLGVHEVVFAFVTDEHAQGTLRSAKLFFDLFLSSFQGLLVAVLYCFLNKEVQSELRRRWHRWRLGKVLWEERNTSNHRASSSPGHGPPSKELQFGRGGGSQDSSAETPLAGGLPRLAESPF

Molecule	EC50 [1] [nM]	EC50 [2] [nM]	other results
CC[C@H](C)[C@H](NC(=O)[C@H](Cc1ccccc1)NC(=O)[C@H](CC(=O)O)NC(=O)[C@H](CCCCN)NC(=O)[C@H](C)NC(=O)[C@H](CCCNC(=N)N)NC(=O)[C@H](CCCNC(=N)N)NC(=O)[C@H](CCC(=O)O)NC(=O)[C@H](CC(=O)O)NC(=O)[C@H](CC(C)C)NC(=O)[C@H](Cc1ccc(O)cc1)NC(=O)[C@H](CCCCN)NC(=O)[C@H](CO)NC(=O)[C@H](Cc1ccc(O)cc1)NC(=O)[C@H](CC(=O)O)NC(=O)[C@H](CO)NC(=O)[C@@H](NC(=O)[C@H](Cc1ccccc1)NC(=O)[C@@H](NC(=O)CNC(=O)[C@H](CCC(N)=O)NC(=O)[C@H](CO)NC(=O)[C@@H](N)Cc1c[nH]cn1)[C@@H](C)O)[C@@H](C)O)C(=O)N[C@@H](CCC(=O)O)C(=O)N[C@@H](Cc1c[nH]c2ccccc12)C(=O)N[C@@H](CC(C)C)C(=O)N[C@@H](CC(C)C)C(=O)N[C@@H](CO)C(=O)N[C@@H](C)C(N)=O [ZP2663]			food intake during the first hour (in words) [3]: significantly decreased food intake; improvement of glucose tolerance [4]: 64.9%; glucose tolerance during OGTT (in words) ([4]; AUC0-240 min): significantly improved glucose tolerance; body weight gain (in words) ([5]; 500 nmol/kg b.i.d. s.c., 28 days): decreased body weight gain to a level similar to that observed with chow feeding; blood concentration of LDL cholesterol vs vehicle (in words) ([5]; 4 weeks b.i.d.): statistically significantly different from the vehicle group; fat deposition (in words) ([5]; 4 weeks treatment): significantly decreased fat deposition; EC50 [6]: 4.4 nM; effect on lipolysis in primary adipocyte cultures (in words) [6]: equipotent with glucagon
H-HSQGTFTSDYSKYLDDRRARDFIDWLLSA-NH2 [Compound L006-0093]	0.1	0.07	
H-HSQGTFTSDYSKYLDERRAQDFIEWLLSA-NH2 [Compound L006-0082]		0.09	
H-HSQGTFTSDYSKYLDKRRAEDFIKWLLSA-NH2 [Compound L006-0094]	0.25	0.16	
H-HSQGTFTSDYSKYLDSRRAKDFIEWLLSA-NH2 [Compound L006-0081]	0.23	0.14	
PYY(3-36): internal positive control for food intake (anorectic peptide) [reference compound]			food intake during the first hour (in words) [3]: anorectic effect
H-HSQGTFTSDYSKYLDERRAKDFIQWLLSA-NH2 [Compound L006-0084]	0.13	0.07	
CC[C@H](C)[C@H](NC(=O)[C@H](Cc1ccccc1)NC(=O)[C@H](CC(=O)O)NC(=O)[C@H](CCC(N)=O)NC(=O)[C@H](C)NC(=O)[C@H](CCCNC(=N)N)NC(=O)[C@H](CCCNC(=N)N)NC(=O)[C@H](CO)NC(=O)[C@H](CC(=O)O)NC(=O)[C@H](CC(C)C)NC(=O)[C@H](Cc1ccc(O)cc1)NC(=O)[C@H](CCCCN)NC(=O)[C@H](CO)NC(=O)[C@H](Cc1ccc(O)cc1)NC(=O)[C@H](CC(=O)O)NC(=O)[C@H](CO)NC(=O)[C@@H](NC(=O)[C@H](Cc1ccccc1)NC(=O)[C@@H](NC(=O)CNC(=O)[C@H](CCC(N)=O)NC(=O)[C@H](CO)NC(=O)[C@@H](N)Cc1c[nH]cn1)[C@@H](C)O)[C@@H](C)O)C(=O)N[C@@H](CCC(=O)O)C(=O)N[C@@H](Cc1c[nH]c2ccccc12)C(=O)N[C@@H](CC(C)C)C(=O)N[C@@H](CC(C)C)C(=O)N[C@@H](CO)C(=O)N[C@@H](C)C(N)=O [Compound L006-0090]	0.22	0.15	
Exendin-4			EC50, stimulation of lipolysis in primary rat adipocyte cultures ([6]; 60 min, glycerol formed): No effect; GLP-1R agonist activity (in words) [2]: very potent GLP-1R agonist

Now from value to molecule, other results behind:

EC50 [1] [nM]	EC50 [2] [nM]	Molecule	other results
0.22	0.16	H-HSQGTFTSDYSKYLDERRAKDFIRWLLSA-NH2 [Compound L006-0128]	
0.33	0.22	H-HSQGTFTSDYSKYLDERRAKDFIEWLLAA-NH2 [Compound L006-0136]	
0.38	0.29	H-HSQGTFTSDYSKYLDERRAKDFIEWLLRA-NH2 [Compound L006-0138]	
0.81	0.53	H-HSQGTFTSDYSKYLDERAAKDFIEWLLSA-NH2 [Compound L006-0108]	
0.24	0.2	H-HSQGTFTSDYSKYLDERRAKDFIDWLLSA-NH2 [Compound L006-0129]	
